Values quoted from earlier work, collected in US8778397B2, “Stabilized tolterodine tartrate formulations” (Mylan Inc., priority 2007, dated 2014).

Cc1ccc(O)c([C@H](CCN(C(C)C)C(C)C)c2ccccc2)c1 [Tolterodine]
solubility in water: 12 g/1000 mL
